Laboratory results taken from PubChem BioAssay AID216 (DTP/NCI, 2004).
“And” between values parts separate entries of the source, which are not always exact repeats. Equal entries are not always repeated. Toxic doses and inconclusive results are not listed.

System: BDF1 mice, P288 leukemia ip, survival T/C
Experiment: NCI In Vivo Anticancer Drug Screen. Data for tumor model P288 Lymphocytic Leukemia (intraperitoneal) in B6D2F1 (BDF1) mice
Conditions: endpoint: survival time, mean or median, higher = longer survival
Description: The antitumor activity of compounds was measured in mice bearing transplantable tumors. Survival or tumor size were measured and the results are expressed as the measurement made in the treated group (T) divided by the measurement made in the vehicle treated control group (C). The tumor model used in this assay is P288 Lymphocytic Leukemia (intraperitoneal) in B6D2F1 (BDF1) mice

[1] = dose: 8.0 mg/kg/injection, schedule: Q01DX010 (ip), vehicle: saline
[2] = dose: 16.0 mg/kg/injection, schedule: Q01DX010 (ip), vehicle: saline
[3] = dose: 32.0 mg/kg/injection, schedule: Q01DX010 (ip), vehicle: saline
[4] = dose: 6.25 mg/kg/injection, schedule: Q01DX010 (ip), vehicle: saline
[5] = dose: 12.5 mg/kg/injection, schedule: Q01DX010 (ip), vehicle: saline
[6] = dose: 3.1 mg/kg/injection, schedule: Q01DX Z (ip), vehicle: carboxymethylcellulose (CMC)
[7] = dose: 25.0 mg/kg/injection, schedule: Q01DX Z (ip), vehicle: carboxymethylcellulose (CMC)
[8] = dose: 5.0 mg/kg/injection, schedule: Q01DX Z (ip), vehicle: carboxymethylcellulose (CMC)
[9] = dose: 10.0 mg/kg/injection, schedule: Q01DX Z (ip), vehicle: carboxymethylcellulose (CMC)
[10] = dose: 20.0 mg/kg/injection, schedule: Q01DX Z (ip), vehicle: carboxymethylcellulose (CMC)
[11] = dose: 125.0 mg/kg/injection, schedule: Q01DX Z (ip), vehicle: carboxymethylcellulose (CMC)

Question: For `c1ccc(CNc2ncnc3[nH]ncc23)cc1`, which T/C (dose: 1.95 mg/kg/injection, schedule: Q01DX Z (ip), vehicle: carboxymethylcellulose (CMC)) is on record?
Answer: 91 % of control

Question: And the T/C (dose: 3.9 mg/kg/injection, schedule: Q01DX Z (ip), vehicle: carboxymethylcellulose (CMC))?
Answer: 97 % of control

Question: And the T/C (dose: 7.8 mg/kg/injection, schedule: Q01DX Z (ip), vehicle: carboxymethylcellulose (CMC))?
Answer: 90 % of control

Question: What about the T/C [1] of the same molecule?
Answer: 121 % of control and 93 % of control

Question: And the T/C [2]?
Answer: 112 % of control and 114 % of control

Question: And the T/C [3]?
Answer: 118 % of control

Question: What does the source list for `N#C[C@@H]1C2C=CC(CC2)[C@H]1C#N`?
Answer: T/C (dose: 0.25 mg/kg/injection, schedule: Q01DX010 (ip), vehicle: saline): 89 % of control; T/C (dose: 63.0 micrograms/kg/injection, schedule: Q01DX010 (ip), vehicle: saline): 105 % of control; T/C (dose: 125.0 micrograms/kg/injection, schedule: Q01DX010 (ip), vehicle: saline): 105 % of control; T/C (dose: 500.0 micrograms/kg/injection, schedule: Q01DX010 (ip), vehicle: saline): 111 % of control

Question: How did the T/C [4] turn out when `CS(=O)(=O)OCCCCOS(C)(=O)=O` was run?
Answer: 110 % of control

Question: What about the T/C [5] of the same molecule?
Answer: 105 % of control and 115 % of control

Question: And the T/C (dose: 25.0 mg/kg/injection, schedule: Q01DX010 (ip), vehicle: saline)?
Answer: 105 % of control and 110 % of control

Question: And the T/C (dose: 50.0 mg/kg/injection, schedule: Q01DX010 (ip), vehicle: saline)?
Answer: 121 % of control and 100 % of control

Question: Which results are given for `CCCCNc1ncnc2c1cnn2C`?
Answer: T/C (dose: 0.22 mg/kg/injection, schedule: Q01DX Z (ip), vehicle: carboxymethylcellulose (CMC)): 90 % of control; T/C (dose: 0.45 mg/kg/injection, schedule: Q01DX Z (ip), vehicle: carboxymethylcellulose (CMC)): 90 % of control; T/C (dose: 0.9 mg/kg/injection, schedule: Q01DX Z (ip), vehicle: carboxymethylcellulose (CMC)): 90 % of control

Question: What does the source list for `Cn1c(N)nc2nc[nH]c2c1=S`?
Answer: T/C [6]: 90 % of control; T/C (dose: 10.0 mg/kg/injection, schedule: Q01DX010 (ip), vehicle: saline): 100 % of control; T/C (dose: 20.0 mg/kg/injection, schedule: Q01DX010 (ip), vehicle: saline): 100 % of control; T/C (dose: 40.0 mg/kg/injection, schedule: Q01DX010 (ip), vehicle: saline): 100 % of control; T/C (dose: 80.0 mg/kg/injection, schedule: Q01DX010 (ip), vehicle: saline): 106 % of control

Question: With `C[n+]1c2ccccc2nc2c(N)cc(N)cc21` as the molecule, how does the T/C [6] read?
Answer: 114 % of control

Question: What about the T/C (dose: 6.25 mg/kg/injection, schedule: Q01DX Z (ip), vehicle: carboxymethylcellulose (CMC)) of the same molecule?
Answer: 97 % of control

Question: And the T/C (dose: 6.3 mg/kg/injection, schedule: Q01DX Z (ip), vehicle: carboxymethylcellulose (CMC))?
Answer: 115 % of control

Question: And the T/C (dose: 12.5 mg/kg/injection, schedule: Q01DX Z (ip), vehicle: carboxymethylcellulose (CMC))?
Answer: 104 % of control and 105 % of control

Question: And the T/C [7]?
Answer: 117 % of control and 96 % of control

Question: Which T/C (dose: 3.13 mg/kg/injection, schedule: Q01DX010 (ip), vehicle: saline) does the source give for `N=[N+]=CC(=O)OCC(N)C(=O)O` (stereo unspecified) here?
Answer: 94 % of control

Question: What about the T/C [4] of the same molecule?
Answer: 105 % of control

Question: And the T/C [5]?
Answer: 100 % of control

Question: Which results are given for `O=C(Nc1ccc(C2=NCCN2)cc1)c1ccc(C(=O)Nc2ccc(C3=NCCN3)cc2)c(Cl)c1`?
Answer: T/C (dose: 2.0 mg/kg/injection, schedule: Q01DX010 (ip), vehicle: other): 108 % of control and 120 % of control; T/C (dose: 7.5 mg/kg/injection, schedule: Q01DX Z (ip), vehicle: water): 107 % of control; T/C (dose: 8.0 mg/kg/injection, schedule: Q01DX010 (ip), vehicle: other): 160 % of control and 183 % of control; T/C (dose: 16.0 mg/kg/injection, schedule: Q01DX010 (ip), vehicle: other): 232 % of control and 262 % of control; T/C (dose: 30.0 mg/kg/injection, schedule: Q01DX Z (ip), vehicle: water): 154 % of control; T/C (dose: 32.0 mg/kg/injection, schedule: Q01DX010 (ip), vehicle: other): 120 % of control and 296 % of control

Question: Which results are given for `CC(CCC(C)OS(C)(=O)=O)OS(C)(=O)=O` (stereo unspecified)?
Answer: T/C (dose: 0.63 mg/kg/injection, schedule: Q01DX Z (ip), vehicle: carboxymethylcellulose (CMC)): 100 % of control; T/C (dose: 1.25 mg/kg/injection, schedule: Q01DX Z (ip), vehicle: carboxymethylcellulose (CMC)): 88 % of control; T/C (dose: 2.0 mg/kg/injection, schedule: Q01DX010 (ip), vehicle: saline): 90 % of control; T/C (dose: 2.5 mg/kg/injection, schedule: Q01DX Z (ip), vehicle: carboxymethylcellulose (CMC)): 105 % of control; T/C (dose: 4.0 mg/kg/injection, schedule: Q01DX010 (ip), vehicle: saline): 90 % of control; T/C [8]: 114 % of control; T/C [1]: 100 % of control; T/C [9]: 107 % of control; T/C [2]: 104 % of control and 105 % of control and 90 % of control; T/C [10]: 90 % of control

Question: Which results are given for `O=CCC(O)C(O)C(O)CO` (stereo unspecified)?
Answer: T/C (dose: 16.0 mg/kg/injection, schedule: Q01DX Z (ip), vehicle: carboxymethylcellulose (CMC)): 120 % of control; T/C (dose: 62.5 mg/kg/injection, schedule: Q01DX Z (ip), vehicle: carboxymethylcellulose (CMC)): 113 % of control; T/C [11]: 120 % of control; T/C (dose: 250.0 mg/kg/injection, schedule: Q01DX010 (ip), vehicle: saline): 90 % of control and 100 % of control; T/C (dose: 500.0 mg/kg/injection, schedule: Q01DX010 (ip), vehicle: saline): 100 % of control

Question: What does the source list for `O=c1cn[nH]c(=O)[nH]1`?
Answer: T/C [8]: 113 % of control; T/C [9]: 101 % of control; T/C [10]: 113 % of control; T/C [11]: 104 % of control; T/C (dose: 250.0 mg/kg/injection, schedule: Q01DX Z (ip), vehicle: carboxymethylcellulose (CMC)): 108 % of control and 93 % of control; T/C (dose: 500.0 mg/kg/injection, schedule: Q01DX Z (ip), vehicle: carboxymethylcellulose (CMC)): 106 % of control; T/C (dose: 1000.0 mg/kg/injection, schedule: Q01DX Z (ip), vehicle: carboxymethylcellulose (CMC)): 118 % of control

Question: With `Nc1nc(=S)c2[nH]cnc2[nH]1` as the molecule, how does the T/C (dose: 0.12 mg/kg/injection, schedule: Q01DX Z (ip), vehicle: carboxymethylcellulose (CMC)) read?
Answer: 101 % of control

Question: What about the T/C (dose: 0.25 mg/kg/injection, schedule: Q01DX Z (ip), vehicle: carboxymethylcellulose (CMC)) of the same molecule?
Answer: 105 % of control and 109 % of control

Question: And the T/C (dose: 0.5 mg/kg/injection, schedule: Q01DX Z (ip), vehicle: carboxymethylcellulose (CMC))?
Answer: 111 % of control and 122 % of control and 86 % of control

Question: What about the T/C (dose: 1.0 mg/kg/injection, schedule: Q01DX Z (ip), vehicle: carboxymethylcellulose (CMC)) of the same molecule?
Answer: 107 % of control and 100 % of control

Question: What about the T/C (dose: 2.0 mg/kg/injection, schedule: Q01DX Z (ip), vehicle: carboxymethylcellulose (CMC)) of the same molecule?
Answer: 103 % of control and 117 % of control and 98 % of control

Question: And the T/C (dose: 2.5 mg/kg/injection, schedule: Q01DX010 (ip), vehicle: other)?
Answer: 115 % of control

Question: What about the T/C (dose: 4.0 mg/kg/injection, schedule: Q01DX Z (ip), vehicle: carboxymethylcellulose (CMC)) of the same molecule?
Answer: 94 % of control

Question: What about the T/C (dose: 5.0 mg/kg/injection, schedule: Q01DX010 (ip), vehicle: other) of the same molecule?
Answer: 110 % of control and 94 % of control

Question: And the T/C (dose: 10.0 mg/kg/injection, schedule: Q01DX010 (ip), vehicle: other)?
Answer: 94 % of control

Question: Which T/C [2] does the source give for `CCCCn1cnc2c(=S)nc[nH]c21` here?
Answer: 88 % of control and 94 % of control

Question: What about the T/C [7] of the same molecule?
Answer: 108 % of control

Question: And the T/C [3]?
Answer: 88 % of control and 100 % of control

Question: What about the T/C (dose: 50.0 mg/kg/injection, schedule: Q01DX Z (ip), vehicle: carboxymethylcellulose (CMC)) of the same molecule?
Answer: 102 % of control

Question: And the T/C (dose: 64.0 mg/kg/injection, schedule: Q01DX010 (ip), vehicle: saline)?
Answer: 88 % of control and 100 % of control

Question: And the T/C (dose: 100.0 mg/kg/injection, schedule: Q01DX Z (ip), vehicle: carboxymethylcellulose (CMC))?
Answer: 106 % of control and 113 % of control

Question: And the T/C (dose: 128.0 mg/kg/injection, schedule: Q01DX010 (ip), vehicle: saline)?
Answer: 100 % of control

Question: And the T/C (dose: 200.0 mg/kg/injection, schedule: Q01DX Z (ip), vehicle: carboxymethylcellulose (CMC))?
Answer: 100 % of control

Question: What does the source list for `C[C@]12CCC(=O)C=C1CC[C@@H]1[C@@H]2CC[C@@]2(C)[C@H]1CC[C@]2(C)O`?
Answer: T/C (dose: 16.0 mg/kg/injection, schedule: Q01DX Z (sc), vehicle: steriod suspending solution): 104 % of control; T/C (dose: 31.0 mg/kg/injection, schedule: Q01DX Z (sc), vehicle: steriod suspending solution): 108 % of control; T/C (dose: 62.5 mg/kg/injection, schedule: Q01DX Z (sc), vehicle: steriod suspending solution): 110 % of control and 116 % of control; T/C (dose: 125.0 mg/kg/injection, schedule: Q01DX Z (sc), vehicle: steriod suspending solution): 100 % of control; T/C (dose: 250.0 mg/kg/injection, schedule: Q01DX Z (sc), vehicle: steriod suspending solution): 100 % of control; T/C (dose: 500.0 mg/kg/injection, schedule: Q01DX Z (sc), vehicle: steriod suspending solution): 101 % of control
